In patent US4956381A, “Treating tissue calcium depletion or degenerative processes in bone or cartilage” (Sandoz Ltd., priority 1987, dated 1990):

What was measured:
[1] = tested on: recombinant human IL-1; test: Recombinant human IL-1 induced mouse thymocyte proliferation; type: cell-based; details: 75 ng/ml rh IL-1
Method: Lymphocyte proliferation is the standard test for monokine activity. It is highly sensitive, though relatively unspecific, with IL-2, phorbol myristate acetate, concanavalin A' g-type-prostaglandin and indomethacin-nall effecting disturbance. Human monocyte culture media are prepared as described under I.I.b. above, diluted 1:10, 1:20 and 1:40 (v:v), and added to […] (obtained from C3H/HeJ mice) Dulbecco's modified Eagle's medium, containing 20 mM hydroxyethyl-piperazin-ethane-sulfonic acid, 12 mM NaHCO3, 2 mM glutamine, 2% foetal bovine serum, 10 μM 2-mercaptoethanol, […] and antibiotics. The cells are incubated for 2 days in 96-well culture plates and the proliferation rate determined using a ^3 H-thymidine pulse (1 μC/well) during the final 6 hours. The incorporated radioactivity is collected on filter paper and counted. […] Thus determined ED50 s for the compounds D2 and K1 each in substantially pure Z-isomeric form in a series of 2 separate experiments each with 3 parallel determinations are of the order of 30 μM
In order to rule out an antagonistic effect or a direct influence of the COMPOUNDS OF THE INVENTION on the proliferation of mouse thymocytes which are used above in the LAF-test, the effect of the COMPOUNDS OF THE INVENTION on the incorporation of ^3 H-thymidine Is determined after thymocyte stimulation with recombinant human IL-1 or IL-2.

[2] = tested on: IL-1; test: IL-1 induced secretion of metalloproteinase (MP) in chondrocytes; type: cell-based; details: 2 days incubation
Method: Furthermore the influence on IL-1 induced secretion of MP is determined using chondrocytes as a target system for IL-1. IL-1 (Genzyme Corporation,USA) is added with or without a COMPOUND OF THE INVENTION or Dexamethasone (control) to chondrocytes and the activity or metalloproteinase is determined in the supernatant media of 2 days incubation period.

[3] = tested on: adjuvant arthritis; test: Disease modifying activity in an animal model of rheumatoid arthritis (adjuvant arthritis); type: in vivo, rat; details: substantially pure Z-isomeric form
Method: Following induction of adjuvant arthritis in 48 adult female rats, the test compound is administered orally for 40 days. Articular swelling and bone densitometry are measured at days 10, 20, 30 and 40 and compared with control animals receiving placebo. In addition, cartilage glycosaminoglycans (GAG) are measured in femoral condyles removed on completion of the treatment period. α2 -Macroglobulin is determined in serum on days 0, 3, 6, 9, 16 and 22.
The procedure for in vivo estimation of bone density in adult rats as used in the above test method is based on the radiographic densitometric method described by Albanese et al. in J. Amer. Ger. Soc. 17, 142-153 (1969). A longitudinal bone survey is conducted in the arthritic rats during the treatment with the test substance and compared with untreated arthritic rats and control animals. In vivo quantitative radiographic scanning is performed taking the trabecular mass as the parameter. […] Because of the characteristics of the system (image darkening representing increased Relative Optical Density) the recorded values are expressed as (1-x) where x Is the experimentally measured ROD in order to conform to the biological effect of X-rays on bone tissue (i.e. film darkening indicates decrease in bone density). […]

[4] = tested on: beagle dogs; test: Tolerability / pilot toxicology in beagle dogs; type: in vivo; details: up to 200 mg/kg/day for 26 weeks

COC1=Cc2ccccc2/C(=C/C(=O)O)c2ccsc21 [Compound D2, [10-Methoxy-4H-benzo[4,5]cyclohepta[1,2-b]thiophen-4-ylidene]-acetic acid]
concentration dependency of influence on rh IL-1 induced proliferation [1]: no concentration dependency is detectable
influence on recombinant human IL-1 induced proliferation ([1]; 3H-thymidine incorporation, mouse thymocytes): no significant influence
influence on IL-1 induced secretion of MP [2]: do not influence the IL-1 induced secretion of MP
protective effect on cartilage and bone ([3]; rats with adjuvant arthritis): show a protective effect on cartilage and bone in rats with adjuvant arthritis
disease modifying activity ([3]; especially after 30 days treatment): exhibit disease modifying activity especially after a period of 30 days treatment
tolerability [4]: generally well tolerated
